Data reported in the NIST ThermoML archive (doi:10.1016/j.jct.2016.07.005).
± gives the expanded uncertainty stated by the source.

Assay: refractive index (Na D-line) (dimensionless); xn = mol fraction of the nth substance listed
Details: 100 kPa, Liquid, Standard Abbe refractometry

CN1CCC[C@H]1c1cccnc1 [(-)-3-(N-methylpyrrolidino)pyridine] + CC(O)CO
refractive index
Details | x1 = 0.1 | x1 = 0.2009 | x1 = 0.3 | x1 = 0.4016 | x1 = 0.5 | x1 = 0.6005 | x1 = 0.7 | x1 = 0.7983 | x1 = 0.9 | x1 = 1
293.15 K | 1.45151 ± 0.00037 | 1.46746 ± 0.00037 | 1.48003 ± 0.00037 | 1.4907 ± 0.00037 | 1.49923 ± 0.00038 | 1.50631 ± 0.00038 | 1.51219 ± 0.00039 | 1.51744 ± 0.00039 | 1.52199 ± 0.0004 | 1.52665 ± 0.0004
298.15 K | 1.44969 ± 0.00037 | 1.4656 ± 0.00037 | 1.47804 ± 0.00037 | 1.48864 ± 0.00037 | 1.49711 ± 0.00038 | 1.50413 ± 0.00038 | 1.50997 ± 0.00039 | 1.5152 ± 0.00039 | 1.51971 ± 0.0004 | 1.52439 ± 0.0004
303.15 K | 1.448 ± 0.00037 | 1.46377 ± 0.00037 | 1.47612 ± 0.00037 | 1.48662 ± 0.00037 | 1.49496 ± 0.00038 | 1.50195 ± 0.00038 | 1.50774 ± 0.00039 | 1.51296 ± 0.00039 | 1.51749 ± 0.0004 | 1.52214 ± 0.0004
308.15 K | 1.44622 ± 0.00037 | 1.46193 ± 0.00037 | 1.47424 ± 0.00037 | 1.48462 ± 0.00037 | 1.49301 ± 0.00038 | 1.49987 ± 0.00038 | 1.50568 ± 0.00039 | 1.51076 ± 0.00039 | 1.5153 ± 0.0004 | 1.51988 ± 0.0004
313.15 K | 1.44441 ± 0.00037 | 1.46029 ± 0.00037 | 1.4723 ± 0.00037 | 1.48255 ± 0.00037 | 1.49092 ± 0.00038 | 1.49774 ± 0.00038 | 1.50345 ± 0.00039 | 1.5087 ± 0.00039 | 1.51312 ± 0.0004 | 1.5179 ± 0.0004
318.15 K | 1.44265 ± 0.00037 | 1.45843 ± 0.00037 | 1.47031 ± 0.00037 | 1.48043 ± 0.00037 | 1.48871 ± 0.00038 | 1.49555 ± 0.00038 | 1.50118 ± 0.00039 | 1.50651 ± 0.00039 | 1.511 ± 0.0004 | 1.51592 ± 0.0004
323.15 K | 1.44081 ± 0.00037 | 1.45653 ± 0.00037 | 1.46833 ± 0.00037 | 1.47837 ± 0.00037 | 1.48665 ± 0.00038 | 1.49341 ± 0.00038 | 1.49904 ± 0.00039 | 1.50435 ± 0.00039 | 1.50881 ± 0.0004 | 1.51373 ± 0.0004

CN1CCC[C@H]1c1cccnc1 [(-)-3-(N-methylpyrrolidino)pyridine] + CCC(C)O
refractive index
Details | x1 = 0.1 | x1 = 0.2036 | x1 = 0.3 | x1 = 0.4 | x1 = 0.5 | x1 = 0.6 | x1 = 0.6956 | x1 = 0.8 | x1 = 0.9 | x1 = 1
293.15 K | 1.41889 ± 0.00037 | 1.43839 ± 0.00037 | 1.4542 ± 0.00037 | 1.46843 ± 0.00037 | 1.48084 ± 0.00038 | 1.49173 ± 0.00038 | 1.50103 ± 0.00039 | 1.51029 ± 0.00039 | 1.51858 ± 0.0004 | 1.52665 ± 0.0004
298.15 K | 1.41668 ± 0.00037 | 1.43618 ± 0.00037 | 1.45199 ± 0.00037 | 1.46621 ± 0.00037 | 1.47864 ± 0.00038 | 1.48952 ± 0.00038 | 1.4988 ± 0.00039 | 1.50803 ± 0.00039 | 1.51632 ± 0.0004 | 1.52439 ± 0.0004
303.15 K | 1.41438 ± 0.00037 | 1.43393 ± 0.00037 | 1.44972 ± 0.00037 | 1.46397 ± 0.00037 | 1.47644 ± 0.00038 | 1.48735 ± 0.00038 | 1.49664 ± 0.00039 | 1.50585 ± 0.00039 | 1.5141 ± 0.0004 | 1.52214 ± 0.0004
308.15 K | 1.41211 ± 0.00037 | 1.43166 ± 0.00037 | 1.44747 ± 0.00037 | 1.46172 ± 0.00037 | 1.4742 ± 0.00038 | 1.48511 ± 0.00038 | 1.49439 ± 0.00039 | 1.50359 ± 0.00039 | 1.51184 ± 0.0004 | 1.51988 ± 0.0004
313.15 K | 1.40979 ± 0.00037 | 1.42936 ± 0.00037 | 1.44519 ± 0.00037 | 1.45945 ± 0.00037 | 1.47192 ± 0.00038 | 1.48284 ± 0.00038 | 1.49217 ± 0.00039 | 1.50145 ± 0.00039 | 1.50978 ± 0.0004 | 1.5179 ± 0.0004
318.15 K | 1.40753 ± 0.00037 | 1.4271 ± 0.00037 | 1.44297 ± 0.00037 | 1.45725 ± 0.00037 | 1.46971 ± 0.00038 | 1.48065 ± 0.00038 | 1.49001 ± 0.00039 | 1.49933 ± 0.00039 | 1.50772 ± 0.0004 | 1.51592 ± 0.0004
323.15 K | 1.40509 ± 0.00037 | 1.42476 ± 0.00037 | 1.44065 ± 0.00037 | 1.45496 ± 0.00037 | 1.46747 ± 0.00038 | 1.47843 ± 0.00038 | 1.48779 ± 0.00039 | 1.49711 ± 0.00039 | 1.5055 ± 0.0004 | 1.51373 ± 0.0004

CN1CCC[C@H]1c1cccnc1 [(-)-3-(N-methylpyrrolidino)pyridine] + CCCCO
refractive index
Details | x1 = 0.1 | x1 = 0.196 | x1 = 0.3 | x1 = 0.3931 | x1 = 0.5 | x1 = 0.593 | x1 = 0.7 | x1 = 0.7931 | x1 = 0.9 | x1 = 1
293.15 K | 1.42126 ± 0.00037 | 1.44053 ± 0.00037 | 1.45673 ± 0.00037 | 1.46978 ± 0.00037 | 1.48302 ± 0.00038 | 1.49254 ± 0.00038 | 1.50289 ± 0.00039 | 1.51169 ± 0.00039 | 1.51909 ± 0.0004 | 1.52665 ± 0.0004
298.15 K | 1.41913 ± 0.00037 | 1.43825 ± 0.00037 | 1.45448 ± 0.00037 | 1.46759 ± 0.00037 | 1.48076 ± 0.00038 | 1.49031 ± 0.00038 | 1.50065 ± 0.00039 | 1.50945 ± 0.00039 | 1.51685 ± 0.0004 | 1.52439 ± 0.0004
303.15 K | 1.41697 ± 0.00037 | 1.43598 ± 0.00037 | 1.45225 ± 0.00037 | 1.46538 ± 0.00037 | 1.47856 ± 0.00038 | 1.48808 ± 0.00038 | 1.49847 ± 0.00039 | 1.50721 ± 0.00039 | 1.51463 ± 0.0004 | 1.52214 ± 0.0004
308.15 K | 1.41481 ± 0.00037 | 1.43367 ± 0.00037 | 1.45 ± 0.00037 | 1.46318 ± 0.00037 | 1.4763 ± 0.00038 | 1.48583 ± 0.00038 | 1.49623 ± 0.00039 | 1.50495 ± 0.00039 | 1.51238 ± 0.0004 | 1.51988 ± 0.0004
313.15 K | 1.4127 ± 0.00037 | 1.43148 ± 0.00037 | 1.44779 ± 0.00037 | 1.46096 ± 0.00037 | 1.47404 ± 0.00038 | 1.48355 ± 0.00038 | 1.49404 ± 0.00039 | 1.5028 ± 0.00039 | 1.51035 ± 0.0004 | 1.5179 ± 0.0004
318.15 K | 1.41058 ± 0.00037 | 1.42931 ± 0.00037 | 1.44562 ± 0.00037 | 1.45876 ± 0.00037 | 1.47184 ± 0.00038 | 1.48131 ± 0.00038 | 1.49183 ± 0.00039 | 1.50058 ± 0.00039 | 1.50823 ± 0.0004 | 1.51592 ± 0.0004
323.15 K | 1.40842 ± 0.00037 | 1.42705 ± 0.00037 | 1.44337 ± 0.00037 | 1.45655 ± 0.00037 | 1.46958 ± 0.00038 | 1.47906 ± 0.00038 | 1.48961 ± 0.00039 | 1.49837 ± 0.00039 | 1.50604 ± 0.0004 | 1.51373 ± 0.0004

CN1CCC[C@H]1c1cccnc1 [(-)-3-(N-methylpyrrolidino)pyridine] + OCCCO
refractive index
Details | x1 = 0.1 | x1 = 0.1999 | x1 = 0.3 | x1 = 0.3994 | x1 = 0.5 | x1 = 0.6004 | x1 = 0.7 | x1 = 0.8 | x1 = 0.9 | x1 = 1
293.15 K | 1.45763 ± 0.00052 | 1.47282 ± 0.0005 | 1.48522 ± 0.00049 | 1.49551 ± 0.00047 | 1.50314 ± 0.00046 | 1.50913 ± 0.00045 | 1.51461 ± 0.00043 | 1.51947 ± 0.00042 | 1.5228 ± 0.00041 | 1.52665 ± 0.0004
298.15 K | 1.4561 ± 0.00052 | 1.47118 ± 0.0005 | 1.4835 ± 0.00049 | 1.49364 ± 0.00047 | 1.50131 ± 0.00046 | 1.50702 ± 0.00045 | 1.51264 ± 0.00043 | 1.51729 ± 0.00042 | 1.52064 ± 0.00041 | 1.52439 ± 0.0004
303.15 K | 1.45463 ± 0.00052 | 1.46959 ± 0.0005 | 1.48179 ± 0.00049 | 1.49178 ± 0.00047 | 1.49939 ± 0.00046 | 1.5052 ± 0.00045 | 1.51056 ± 0.00043 | 1.51508 ± 0.00042 | 1.51845 ± 0.00041 | 1.52214 ± 0.0004
308.15 K | 1.45312 ± 0.00052 | 1.46793 ± 0.0005 | 1.48 ± 0.00049 | 1.48991 ± 0.00047 | 1.49739 ± 0.00046 | 1.50305 ± 0.00045 | 1.50843 ± 0.00043 | 1.51294 ± 0.00042 | 1.51623 ± 0.00041 | 1.51988 ± 0.0004
313.15 K | 1.45171 ± 0.00052 | 1.46637 ± 0.0005 | 1.47831 ± 0.00049 | 1.48799 ± 0.00047 | 1.49571 ± 0.00046 | 1.50113 ± 0.00045 | 1.50703 ± 0.00043 | 1.51089 ± 0.00042 | 1.51476 ± 0.00041 | 1.5179 ± 0.0004
318.15 K | 1.45006 ± 0.00052 | 1.46458 ± 0.0005 | 1.4764 ± 0.00049 | 1.48604 ± 0.00047 | 1.49341 ± 0.00046 | 1.49907 ± 0.00045 | 1.50429 ± 0.00043 | 1.50872 ± 0.00042 | 1.51216 ± 0.00041 | 1.51592 ± 0.0004
323.15 K | 1.44849 ± 0.00052 | 1.46287 ± 0.0005 | 1.4746 ± 0.00049 | 1.48415 ± 0.00047 | 1.49147 ± 0.00046 | 1.49703 ± 0.00045 | 1.50221 ± 0.00043 | 1.5066 ± 0.00042 | 1.50996 ± 0.00041 | 1.51373 ± 0.0004
